# Publication PMC6515380 (2019)
# How the values were obtained:
# [1] = tested on: wtTel26 (DNA, G4) TTAGGGTTAGGGTTAGGGTTAGGGTT; assay: 1D 1H NMR titration; conditions: 25 mM potassium phosphate, 70 mM KCl, pH 7, 25 °C, 100–250 µM DNA
# [2] = tested on: wtTel26 (DNA, G4) TTAGGGTTAGGGTTAGGGTTAGGGTT; assay: fluorescence titration; conditions: 100 mM K+, 25 °C, pH 7; for Kd: 0.2 μM ligand titrated with DNA; for ΔGbindo(expt): 0.2 μM ligand, ΔG obtained from experimentally determined Kd
# [3] = medium exchange, peak broadening, less specific
"binding [1, 3]",Kd [2] [nM],ΔGbindo(expt) [2] [kcal/mol],"binding ([1]; slow exchange, well-defined complex)",SMILES
yes,740 ± 20.6,-8.41 ± 0.01,,COc1cc2c(cc1OC)-c1cc3ccc(OC)c(OC)c3c[n+]1CC2
,16 ± 1.6,-10.70 ± 0.02,yes,COc1cc2c(cc1OC)-c1cc3ccc4c(c3c[n+]1CC2)OCO4
yes,1994 ± 46.1,-7.82 ± 0.06,,COc1ccc2cc3[n+](cc2c1OC)CCc1cc2c(cc1-3)OCO2
yes,333 ± 5.7,-8.89 ± 0.1,,c1c2c(cc3c1OCO3)-c1cc3ccc4c(c3c[n+]1CC2)OCO4
